This note sets out measurements from publication PMC7059199, “Identification and structural insight of an effective PPARγ modulator with improved therapeutic index for anti-diabetic drug discovery” (Chemical Science, 2020).

Entries after “also recorded” stand apart in the source; their conditions may differ. A value given as a limit tells only on which side of the number the result lay.

Data set [1] has as its target T1, GST-PPARγ LBD (Homo sapiens, UniProt P37231).
T1 construct: 0.5 nM GST-PPARγ LBD was incubated with 5 nM Fluormone™; purchased Invitrogen
T1 sequence (P37231 238-503 limits assumed): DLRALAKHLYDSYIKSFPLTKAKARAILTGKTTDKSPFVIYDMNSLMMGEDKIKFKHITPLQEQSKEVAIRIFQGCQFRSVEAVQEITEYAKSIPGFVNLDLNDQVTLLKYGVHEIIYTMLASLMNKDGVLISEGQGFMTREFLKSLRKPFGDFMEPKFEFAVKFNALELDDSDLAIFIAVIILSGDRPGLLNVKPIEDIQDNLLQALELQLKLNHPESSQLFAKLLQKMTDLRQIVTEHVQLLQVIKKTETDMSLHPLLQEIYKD
As to the kind of experiment: LanthaScreen TR-FRET competitive binding assay, PPARγ. (In general: Time-resolved FRET reads energy transfer from a long-lived donor to a nearby acceptor.)
Method: LanthaScreen™ TR-FRET assay (Invitrogen) was used for measuring the binding affinities of the ligands. 0.5 nM GST-PPARγ LBD was incubated with 5 nM Fluormone™ and Terbium-coated GST antibody.
Competitive TR -FRET binding assay
The GST PPARγ -LBD was labeled with a terbium-linked antibody and a fluorescent small molecule pan-PPAR ligand (Fluormone™ Pan-PPAR Green, Invitrogen) was used as a tracer that is displaced from the ligand binding domain upon agonist binding.
Excitation of the terbium at 340 nm results in FRET to the fluorescent tracer, with
Tracer displacment results is a loss of FRET signal between the terbium label and the fluorescent tracer.
The inhibition constant (ki) for a competitor was calculated by applying the
Cheng-Prusoff equation as following:
the tracer, [tracer] is the concentration of Fluormone™ Pan-PPAR Green used in the
(average±standard deviation calculated from three separate experiments).

The test system of data set [2] is 3T3-L1 cells. As to the kind of experiment: 3T3-L1 adipocyte differentiation assay (Oil Red O staining). Type of data set: cell-based, mouse. As for the experimental part:
One of the best documented side-effects of the PPARγ agonist drugs is weight gain as PPARγ is the key activator of adipogenesis. To determine whether VSP-77 promotes adipogenesis, we treated mouse fibroblast 3T3-L1 cells with 100 μM of VSP-77. […] Cells were incubated with Oil Red O, which stains adipocytes red.
Fig. 6 3T3-L1 adipocyte differentiation assay. Oil Red O staining of 3T3-L1 fibroblast cells after differentiating with different ligands for 2 days. […]
Adipocyte differentiation assay
The adipocyte differentiation assay was performed with NIH 3T3-L1 preadipocytes obtained from ATCC. The 3T3-L1 preadipocytes were maintained in DMEM containing 10% FBS and antibiotics. For differentiation DMI (Dexamethazone 1 μM, 3-isobutyl-1-methyxanthine (IBMX) 0.5 mM and Insulin167 nM) and 10 μM of rosiglitazone were used as positive controls for the assay. VSP-77 was used at a 100 μM concentration. All the treatments have insulin at 167 nM concentration. Media with DMSO was used as a negative control. Differentiation was induced by treating post-confluent cultures with media containing the respective ligands for two days.
Cells were stained with Oil Red O to estimate the lipid accumulation. The images were analyzed using ImageJ (National Institutes of Health). […]

Data set [3] can be described thus: Pharmacokinetic profile in mice. Format: in vivo. Here is the method: VSP-77 was further evaluated for its preliminary pharmacokinetic profile in mice following oral (10 mg kg^–1) and intravenous (5 mg kg^–1) administration (Table S2 ^†).
The target in data set [4] is T2, PPARδ (Homo sapiens, UniProt Q03181).
T2 sequence (Q03181 1-441): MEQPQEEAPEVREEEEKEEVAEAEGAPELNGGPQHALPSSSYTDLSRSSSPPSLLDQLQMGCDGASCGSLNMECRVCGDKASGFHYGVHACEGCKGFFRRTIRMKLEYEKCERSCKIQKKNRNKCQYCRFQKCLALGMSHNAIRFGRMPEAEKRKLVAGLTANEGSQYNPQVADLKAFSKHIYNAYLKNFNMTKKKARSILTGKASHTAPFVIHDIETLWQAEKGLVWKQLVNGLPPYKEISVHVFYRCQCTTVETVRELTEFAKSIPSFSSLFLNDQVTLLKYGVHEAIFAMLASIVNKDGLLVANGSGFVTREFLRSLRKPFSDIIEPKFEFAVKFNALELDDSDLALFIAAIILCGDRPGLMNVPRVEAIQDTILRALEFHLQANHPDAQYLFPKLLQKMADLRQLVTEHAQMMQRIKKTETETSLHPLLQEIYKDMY
Nature of the data set: Competitive TR-FRET assay, PPARδ. As to conditions: even at 100 μM.

In data set [5] the target is hERG potassium ion channel (Homo sapiens, UniProt Q12809). Nature of the data set: Inhibition assay on the hERG potassium ion channel. A general note: hERG is a cardiac potassium channel; its block is linked to QT prolongation.
Chain of hERG potassium ion channel (Q12809 whole entry): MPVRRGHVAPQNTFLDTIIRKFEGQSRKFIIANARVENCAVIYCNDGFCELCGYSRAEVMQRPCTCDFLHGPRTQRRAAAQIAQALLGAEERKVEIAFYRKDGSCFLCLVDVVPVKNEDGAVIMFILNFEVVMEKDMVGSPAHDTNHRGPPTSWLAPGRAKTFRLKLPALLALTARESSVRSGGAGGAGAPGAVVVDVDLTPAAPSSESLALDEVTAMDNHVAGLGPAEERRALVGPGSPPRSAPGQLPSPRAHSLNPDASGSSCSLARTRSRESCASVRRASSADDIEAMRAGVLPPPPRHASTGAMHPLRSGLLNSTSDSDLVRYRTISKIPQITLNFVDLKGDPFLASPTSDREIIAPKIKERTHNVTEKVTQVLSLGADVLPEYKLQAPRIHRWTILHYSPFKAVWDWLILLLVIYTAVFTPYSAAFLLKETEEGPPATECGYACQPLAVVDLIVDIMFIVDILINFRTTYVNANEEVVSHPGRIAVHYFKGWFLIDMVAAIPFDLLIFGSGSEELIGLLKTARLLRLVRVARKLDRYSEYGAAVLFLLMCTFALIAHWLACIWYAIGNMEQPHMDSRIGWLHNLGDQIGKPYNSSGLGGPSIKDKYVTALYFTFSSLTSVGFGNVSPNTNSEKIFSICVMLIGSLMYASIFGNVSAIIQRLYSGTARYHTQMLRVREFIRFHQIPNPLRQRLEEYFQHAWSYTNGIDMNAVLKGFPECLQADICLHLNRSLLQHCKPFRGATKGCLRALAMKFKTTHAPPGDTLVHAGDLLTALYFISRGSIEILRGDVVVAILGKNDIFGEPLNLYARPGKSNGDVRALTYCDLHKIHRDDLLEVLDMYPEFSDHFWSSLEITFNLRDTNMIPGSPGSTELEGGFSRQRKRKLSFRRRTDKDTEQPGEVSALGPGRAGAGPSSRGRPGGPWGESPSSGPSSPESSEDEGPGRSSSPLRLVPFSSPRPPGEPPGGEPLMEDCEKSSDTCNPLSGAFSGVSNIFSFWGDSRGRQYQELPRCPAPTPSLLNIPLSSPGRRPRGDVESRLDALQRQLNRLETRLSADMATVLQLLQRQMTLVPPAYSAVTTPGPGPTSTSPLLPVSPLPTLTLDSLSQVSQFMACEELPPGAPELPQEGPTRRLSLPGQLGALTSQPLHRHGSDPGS
[6] abbreviates: mouse, in vivo, intravenous 5 mg/kg.
Where [7] appears, read: mouse, in vivo, oral (ig) 10 mg/kg.
Where [8] appears, read: oral 10 mg/kg, unit as printed in main text.

On to `CCCCCCCC(OCC(=O)O)c1ccc(Cl)cc1` (stereo not shown) [VSP-77], for which, in data set [1] (at 10 μM), the “binding to PPARγ (in words)” value is “potent binding affinity”. Moreover, in data set [1] (competition of Fluormone (5 nM), 0.5 nM GST-PPARγ LBD), affinity was put at a Ki of 4.8 µM. The “binding affinity for PPARγ relative to DA” value in data set [1] (higher than DA) is on record as “about 10 fold”. For the same molecule, the “adipogenesis (in words)” value in data set [2] (100 μM) was “does not activate adipogenesis”. Moreover, the “total number of adipocytes when added to DMI- or Rosi-treated cells” value in data set [2] (VSP-77 100 μM) is given as “clear decrease”. Also, the “% Area stained by Oil Red O” value in data set [2] (VSP-77 100 μM, 2 days) worked out at 0%. In data set [3] (setting [6]), this molecule had a total exposure AUC(0-inf) of 5030 ng·h/mL, an AUC(0-t) of 5000 ng·h/mL, an MRT of 1.11 h and a half-life of 64.2 min. In data set [3] (setting [7]), this molecule registered an AUC(0-inf) of 5880 ng·h/mL, an exposure AUC(0-t) of 5770 ng·h/mL, a maximum concentration (Cmax) of 2920 ng/mL and an MRT of 1.94 h. Besides, in data set [3] (setting [7]), the Tmax worked out at 30 min and the half-life was 75 min. Moreover, the bioavailability in data set [3] (mouse, in vivo, oral (ig) 10 mg/kg vs iv 5 mg/kg, read-out: F (oral bioavailability)) turned out to be 57.7%. Further, in data set [3] (setting [8]), the “AUC0–t” value is listed as 5772 ng mL^–1 h^–1 and the “AUC0–∞” value came to 5877 ng mL^–1 h^–1. Moreover, the “effect on PPARδ (in words)” value in data set [4] is recorded as “no obvious effects”. Also, in data set [5], the IC50 was > 50 µM. The “hERG inhibition (in words)” value in data set [5] (even at 50 μM) is “no obvious inhibition; also recorded: no detectable hERG inhibition”.

The Ki is the equilibrium dissociation constant of an inhibitor or competing ligand from its target. A word on the AUC(0-inf): it is total exposure, with the tail of the curve extrapolated. As a reminder, the AUC(0-t) is the area under the concentration-time curve up to a stated or last time point. A low value points to less exposure. The term MRT denotes a mean duration of stay, worked out from the concentration-time curve. In general, half-life refers to the time in which the quantity being followed falls by half. A low value points to rapid decline. What is called Cmax is the maximum level reached in the sampled fluid or tissue. In general, Tmax refers to the time from dosing to the highest level. What is called bioavailability is the share of a dose that reaches the circulation, judged against a reference dose that is usually intravenous. What is called IC50 is the concentration that inhibits the measured activity by half. Low readings indicate greater potency, high ones weaker potency.
